Measurements taken from patent US9315505B2, “Heterocyclic compounds and uses thereof” (INTELLIKINE LLC, priority 2009, dated 2016).
pEC50: −log10 of the molar value.

System: Balb/c splenic B cells
Test: B cell activation and proliferation assay (Alamar Blue)
Type: cell-based
Conditions: Mus musculus, read-out: B cell proliferation EC50
Protocol: The ability of one or more subject compounds to inhibit B cell activation and proliferation is determined according to standard procedures known in the art. For example, an in vitro cellular proliferation assay is established that measures the metabolic activity of live cells. The assay is performed in a 96 well microtiter plate using Alamar Blue reduction. Balb/c splenic B cells are purified over a Ficoll-Paque™ PLUS gradient followed by magnetic cell separation using a MACS B cell Isolation Kit (Miletenyi). Cells are plated in 90 ul at 50,000 cells/well in B Cell Media (RPMI+10% FBS+Penn/Strep+50 uM bME+5 mM HEPES). A compound disclosed herein is diluted in B Cell Media and added in a 10 ul volume. Plates are incubated for 30 min at 37 C and 5% CO2 (0.2% DMSO final concentration). A 50 ul B cell stimulation cocktail is then added containing either 10 ug/ml LPS or 5 ug/ml F(ab′)2 Donkey anti-mouse IgM plus 2 ng/ml recombinant mouse IL4 in B Cell Media. Plates are incubated for 72 hours at 37° C. and 5% CO2. A volume of 15 uL of Alamar Blue reagent is added to each well and plates are incubated for 5 hours at 37 C and 5% CO2. Alamar Blue fluoresce is read at 560Ex/590Em, and IC50 or EC50 values are calculated using GraphPad Prism 5.

Compound | pEC50
Nc1nc2cc(-c3nn(Cc4cc5ccccc5c(N5CCCC5)n4)c4ncnc(N)c34)ccc2o1 [Compound 1] | > 6.00
CN(C)c1nc(Cn2nc(-c3ccc4oc(N)nc4c3)c3c(N)ncnc32)cc2ccccc12 [Compound 2] | > 6.00
Cc1cccc2cc(Cn3nc(-c4cn[nH]c4)c4c(N)ncnc43)nc(OC3CCN(C)CC3)c12 [Compound 3] | > 7.00
Cc1cccc2cc(Cn3nc(-c4ccc5oc(N)nc5c4)c4c(N)ncnc43)nc(OC3CCN(C(C)C)CC3)c12 [Compound 4] | > 7.00
Cc1cccc2cc(Cn3nc(-c4ccc5oc(N)nc5c4)c4c(N)ncnc43)nc(OC3CCN(C)CC3)c12 [Compound 5] | > 7.00
CCN1CCC(Oc2nc(Cn3nc(-c4ccc5oc(N)nc5c4)c4c(N)ncnc43)cc3cccc(C)c23)CC1 [Compound 6] | > 7.00
CCN1CCC(Oc2nc(Cn3nc(-c4cn[nH]c4)c4c(N)ncnc43)cc3cccc(C)c23)CC1 [Compound 7] | > 7.00
Cc1cccc2cc(Cn3nc(-c4cn[nH]c4)c4c(N)ncnc43)nc(OC3CCNCC3)c12 [Compound 9] | > 5.00
Cc1cccc2cc(Cn3nc(-c4cn[nH]c4)c4c(N)ncnc43)nc(OC3CCN(C(C)C)CC3)c12 [Compound 13] | > 7.00
CCN1CCC(Oc2nc(C(C)Nc3ncnc4[nH]cnc34)cc3cccc(C)c23)CC1 (centres unmarked) [Compound 16] | > 7.00
Cc1cccc2cc(Cn3nc(-c4ccc5oc(N)nc5c4)c4c(N)ncnc43)nc(N3CCN(C)CC3)c12 [Compound 17] | > 7.00
Cc1cccc2cc(Cn3nc(-c4ccc5oc(N)nc5c4)c4c(N)ncnc43)nc(N3CCOCC3)c12 [Compound 36] | > 6.00
Cc1cccc2cc(Cn3nc(-c4cn[nH]c4)c4c(N)ncnc43)nc(N3CCOCC3)c12 [Compound 37] | > 7.00
Cc1cccc2cc(C(C)Nc3ncnc4[nH]cnc34)nc(CCN3CCOCC3)c12 (centres unmarked) [Compound 38] | > 7.00
Cc1cccc2cc(C(C)Nc3ncnc4[nH]cnc34)nc(CCN3CCCC3)c12 (centres unmarked) [Compound 39] | > 7.00
Cc1cccc2cc(C(C)Nc3ncnc4[nH]cnc34)nc(NCCN3CCOCC3)c12 (centres unmarked) [Compound 42] | > 6.00

Biological target: T1, PI3K δ (Homo sapiens, UniProt O00329)
T1 construct: purchased Upstate
Test: In vitro IC50, PI3K δ (p110δ/p85α inhibition assay)
Type: biochemical
Conditions: in vitro kinase assay; read-out: IC50(nM) PI3K δ
Protocol: (§1) IC50 values are measured using either a standard TLC assay for lipid kinase activity (described below) or a high-throughput membrane capture assay. Kinase reactions are performed by preparing a reaction mixture containing kinase, inhibitor (2% DMSO final concentration), buffer (25 mM HEPES, pH 7.4, 10 mM MgCl2), and freshly sonicated phosphatidylinositol (100 μg/ml). Reactions are initiated by the addition of ATP containing 10 μCi of γ-32P-ATP to a final concentration 10 or 100 μM and allowed to proceed for 5 minutes at room temperature. For TLC analysis, reactions are then terminated by the addition of 105 μl 1N HCl followed by 160 μl CHCl3:MeOH (1:1). The biphasic mixture is vortexed, briefly centrifuged, and the organic phase is transferred to a new tube using a gel loading pipette tip precoated with CHCl3. This extract is spotted on TLC plates and developed for 3-4 hours in a 65:35 solution of n-propanol:1M acetic acid. The TLC plates are then dried, exposed to a phosphorimager screen (Storm, Amersham), and quantitated.
(§2) Other commercial kits or systems for assaying PI3-K activities are available. The commercially available kits or systems can be used to screen for inhibitors and/or agonists of PI3-Ks including but not limited to PI 3-Kinase α, β, δ, and γ. An exemplary system is PI 3-Kinase (human) HTRF™ Assay from Upstate. […] Briefly, the assay is a time resolved FRET assay that indirectly measures PIP3 product formed by the activity of a PI3-K. The kinase reaction is performed in a microtitre plate (e.g., a 384 well microtitre plate). The total reaction volume is approximately 20 ul per well. In the first step, each well receives 2 ul of test compound in 20% dimethylsulphoxide resulting in a 2% DMSO final concentration. Next, approximately 14.5 ul of a kinase/PIP2 mixture (diluted in 1× reaction buffer) is added per well for a final concentration of 0.25-0.3 ug/ml kinase and 10 uM PIP2. The plate is sealed and incubated for 15 minutes at room temperature. To start the reaction, 3.5 ul of ATP (diluted in 1× reaction buffer) is added per well for a final concentration of 10 uM ATP. The plate is sealed and incubated for 1 hour at room temperature. The reaction is stopped by adding 5 ul of Stop Solution per well and then 5 ul of Detection Mix is added per well. The plate is sealed, incubated for 1 hour at room temperature, and then read on an appropriate plate reader. Data is analyzed and IC50s are generated using GraphPad Prism 5.

T1 sequence (O00329 whole entry): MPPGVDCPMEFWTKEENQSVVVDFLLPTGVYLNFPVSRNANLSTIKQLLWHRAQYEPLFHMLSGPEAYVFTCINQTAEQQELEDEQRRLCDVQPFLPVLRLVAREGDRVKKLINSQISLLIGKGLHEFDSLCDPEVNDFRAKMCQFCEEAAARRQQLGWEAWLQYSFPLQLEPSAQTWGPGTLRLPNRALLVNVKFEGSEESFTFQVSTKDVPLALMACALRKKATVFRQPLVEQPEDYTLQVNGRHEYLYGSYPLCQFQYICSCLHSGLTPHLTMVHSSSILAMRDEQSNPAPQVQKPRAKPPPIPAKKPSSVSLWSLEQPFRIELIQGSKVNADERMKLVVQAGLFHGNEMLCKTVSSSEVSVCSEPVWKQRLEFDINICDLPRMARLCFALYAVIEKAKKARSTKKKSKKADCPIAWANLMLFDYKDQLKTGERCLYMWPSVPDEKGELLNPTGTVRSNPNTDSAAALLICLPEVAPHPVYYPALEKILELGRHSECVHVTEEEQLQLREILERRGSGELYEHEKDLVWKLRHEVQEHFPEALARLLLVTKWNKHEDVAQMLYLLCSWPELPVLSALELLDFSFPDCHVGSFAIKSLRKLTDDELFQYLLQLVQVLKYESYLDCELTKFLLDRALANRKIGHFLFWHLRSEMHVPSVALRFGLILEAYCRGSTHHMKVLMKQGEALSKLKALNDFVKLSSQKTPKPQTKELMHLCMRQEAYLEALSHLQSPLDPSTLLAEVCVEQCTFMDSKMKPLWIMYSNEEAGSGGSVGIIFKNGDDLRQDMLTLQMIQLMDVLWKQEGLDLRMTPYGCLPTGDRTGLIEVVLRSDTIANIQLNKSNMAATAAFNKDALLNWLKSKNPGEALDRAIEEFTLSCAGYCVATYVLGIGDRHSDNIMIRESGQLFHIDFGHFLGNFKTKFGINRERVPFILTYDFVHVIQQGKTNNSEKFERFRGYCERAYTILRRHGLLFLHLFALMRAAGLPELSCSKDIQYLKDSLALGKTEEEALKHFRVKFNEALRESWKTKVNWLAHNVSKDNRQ
T1 sequence (P27986 whole entry partner): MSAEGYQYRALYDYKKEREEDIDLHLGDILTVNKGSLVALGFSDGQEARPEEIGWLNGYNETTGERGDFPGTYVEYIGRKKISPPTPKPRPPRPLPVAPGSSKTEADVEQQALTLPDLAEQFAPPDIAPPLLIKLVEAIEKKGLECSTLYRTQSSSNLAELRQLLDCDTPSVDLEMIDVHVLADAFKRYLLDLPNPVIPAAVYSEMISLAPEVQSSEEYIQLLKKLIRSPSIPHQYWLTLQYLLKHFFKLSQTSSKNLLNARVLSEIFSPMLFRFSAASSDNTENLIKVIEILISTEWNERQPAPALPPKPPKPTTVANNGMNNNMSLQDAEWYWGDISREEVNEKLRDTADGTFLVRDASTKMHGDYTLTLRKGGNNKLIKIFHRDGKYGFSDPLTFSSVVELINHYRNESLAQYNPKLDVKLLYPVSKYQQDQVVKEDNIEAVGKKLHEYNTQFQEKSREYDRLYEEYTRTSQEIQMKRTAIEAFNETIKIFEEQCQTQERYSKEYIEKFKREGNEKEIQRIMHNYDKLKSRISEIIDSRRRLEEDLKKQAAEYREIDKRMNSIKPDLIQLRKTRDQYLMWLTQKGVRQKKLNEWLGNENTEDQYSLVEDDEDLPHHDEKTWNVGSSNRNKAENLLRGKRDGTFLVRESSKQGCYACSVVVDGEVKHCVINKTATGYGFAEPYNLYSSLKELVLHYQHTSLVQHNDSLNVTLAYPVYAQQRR

Compound | IC50 [nM]
CCN1CCC(Oc2nc(Cn3nc(-c4cn[nH]c4)c4c(N)ncnc43)cc3cccc(C)c23)CC1 [Compound 7] | < 100
Cc1cccc2cc(Cn3nc(-c4cn[nH]c4)c4c(N)ncnc43)nc(OC3CCNCC3)c12 [Compound 9] | < 100
Cc1cccc2cc(Cn3nc(-c4cn[nH]c4)c4c(N)ncnc43)nc(OC3CCN(C(C)C)CC3)c12 [Compound 13] | < 100
CCN1CCC(Oc2nc(C(C)Nc3ncnc4[nH]cnc34)cc3cccc(C)c23)CC1 (centres unmarked) [Compound 16] | < 100
Cc1cccc2cc(Cn3nc(-c4ccc5oc(N)nc5c4)c4c(N)ncnc43)nc(N3CCN(C)CC3)c12 [Compound 17] | < 100
Cc1cccc2cc(Cn3nc(-c4ccc5oc(N)nc5c4)c4c(N)ncnc43)nc(N3CCOCC3)c12 [Compound 36] | < 100
Cc1cccc2cc(Cn3nc(-c4cn[nH]c4)c4c(N)ncnc43)nc(N3CCOCC3)c12 [Compound 37] | < 100
Cc1cccc2cc(C(C)Nc3ncnc4[nH]cnc34)nc(CCN3CCOCC3)c12 (centres unmarked) [Compound 38] | < 100
Cc1cccc2cc(C(C)Nc3ncnc4[nH]cnc34)nc(CCN3CCCC3)c12 (centres unmarked) [Compound 39] | < 100
Cc1cccc2cc(C(C)Nc3ncnc4[nH]cnc34)nc(NCCN3CCOCC3)c12 (centres unmarked) [Compound 42] | < 100

Second part, the compound after the results:

IC50 [nM] | Compound
< 100 | Nc1nc2cc(-c3nn(Cc4cc5ccccc5c(N5CCCC5)n4)c4ncnc(N)c34)ccc2o1 [Compound 1]
< 100 | CN(C)c1nc(Cn2nc(-c3ccc4oc(N)nc4c3)c3c(N)ncnc32)cc2ccccc12 [Compound 2]
< 100 | Cc1cccc2cc(Cn3nc(-c4cn[nH]c4)c4c(N)ncnc43)nc(OC3CCN(C)CC3)c12 [Compound 3]
< 100 | Cc1cccc2cc(Cn3nc(-c4ccc5oc(N)nc5c4)c4c(N)ncnc43)nc(OC3CCN(C(C)C)CC3)c12 [Compound 4]
< 100 | Cc1cccc2cc(Cn3nc(-c4ccc5oc(N)nc5c4)c4c(N)ncnc43)nc(OC3CCN(C)CC3)c12 [Compound 5]
< 100 | CCN1CCC(Oc2nc(Cn3nc(-c4ccc5oc(N)nc5c4)c4c(N)ncnc43)cc3cccc(C)c23)CC1 [Compound 6]

Biological target: T2, PI3K α (Homo sapiens, UniProt P42336)
T2 construct: purchased Upstate
Test: In vitro IC50, PI3K α (p110α/p85α inhibition assay)
Type: biochemical
Conditions: in vitro kinase assay; read-out: IC50(nM) PI3K α
Protocol: as §1, §2

T2 sequence (P42336 whole entry): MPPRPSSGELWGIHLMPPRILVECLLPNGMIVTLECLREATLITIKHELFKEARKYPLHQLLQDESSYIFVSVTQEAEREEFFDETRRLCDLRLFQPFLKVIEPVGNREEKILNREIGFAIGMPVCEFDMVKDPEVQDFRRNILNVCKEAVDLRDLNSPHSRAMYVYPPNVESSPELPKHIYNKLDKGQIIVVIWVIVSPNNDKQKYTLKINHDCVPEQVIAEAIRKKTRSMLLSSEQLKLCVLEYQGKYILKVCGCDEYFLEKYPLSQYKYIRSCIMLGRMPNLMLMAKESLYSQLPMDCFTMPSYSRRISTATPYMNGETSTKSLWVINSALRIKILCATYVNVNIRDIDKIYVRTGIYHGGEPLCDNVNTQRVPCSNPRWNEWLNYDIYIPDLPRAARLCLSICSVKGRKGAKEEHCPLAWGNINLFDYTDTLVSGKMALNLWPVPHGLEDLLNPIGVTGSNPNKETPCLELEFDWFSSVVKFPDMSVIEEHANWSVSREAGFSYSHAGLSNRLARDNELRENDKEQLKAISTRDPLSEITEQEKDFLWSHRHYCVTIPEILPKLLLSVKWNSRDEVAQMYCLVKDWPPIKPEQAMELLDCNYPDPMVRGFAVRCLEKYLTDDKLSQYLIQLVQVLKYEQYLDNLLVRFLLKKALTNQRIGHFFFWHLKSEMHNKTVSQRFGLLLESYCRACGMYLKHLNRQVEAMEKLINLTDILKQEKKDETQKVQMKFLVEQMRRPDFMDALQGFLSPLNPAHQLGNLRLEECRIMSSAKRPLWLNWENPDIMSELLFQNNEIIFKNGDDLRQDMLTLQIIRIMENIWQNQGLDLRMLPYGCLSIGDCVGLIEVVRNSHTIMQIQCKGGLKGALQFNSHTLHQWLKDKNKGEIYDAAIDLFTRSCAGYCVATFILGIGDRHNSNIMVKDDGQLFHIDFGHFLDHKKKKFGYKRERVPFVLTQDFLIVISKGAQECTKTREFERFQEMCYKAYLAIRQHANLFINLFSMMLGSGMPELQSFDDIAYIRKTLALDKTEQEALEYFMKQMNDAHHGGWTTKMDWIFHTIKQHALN
T2 sequence (P27986 whole entry partner): as the sequence (P27986 whole entry partner) above

Compound | IC50 [nM]
CCN1CCC(Oc2nc(Cn3nc(-c4cn[nH]c4)c4c(N)ncnc43)cc3cccc(C)c23)CC1 [Compound 7] | < 10000
Cc1cccc2cc(Cn3nc(-c4cn[nH]c4)c4c(N)ncnc43)nc(OC3CCNCC3)c12 [Compound 9] | > 10000
Cc1cccc2cc(Cn3nc(-c4cn[nH]c4)c4c(N)ncnc43)nc(OC3CCN(C(C)C)CC3)c12 [Compound 13] | < 10000
CCN1CCC(Oc2nc(C(C)Nc3ncnc4[nH]cnc34)cc3cccc(C)c23)CC1 (centres unmarked) [Compound 16] | > 10000
Cc1cccc2cc(Cn3nc(-c4ccc5oc(N)nc5c4)c4c(N)ncnc43)nc(N3CCN(C)CC3)c12 [Compound 17] | < 1000

Other lines, results leading:

IC50 [nM] | Compound
< 1000 | Nc1nc2cc(-c3nn(Cc4cc5ccccc5c(N5CCCC5)n4)c4ncnc(N)c34)ccc2o1 [Compound 1]
< 1000 | CN(C)c1nc(Cn2nc(-c3ccc4oc(N)nc4c3)c3c(N)ncnc32)cc2ccccc12 [Compound 2]
< 10000 | Cc1cccc2cc(Cn3nc(-c4cn[nH]c4)c4c(N)ncnc43)nc(OC3CCN(C)CC3)c12 [Compound 3]
< 1000 | Cc1cccc2cc(Cn3nc(-c4ccc5oc(N)nc5c4)c4c(N)ncnc43)nc(OC3CCN(C(C)C)CC3)c12 [Compound 4]
< 100 | Cc1cccc2cc(Cn3nc(-c4ccc5oc(N)nc5c4)c4c(N)ncnc43)nc(OC3CCN(C)CC3)c12 [Compound 5]
< 1000 | CCN1CCC(Oc2nc(Cn3nc(-c4ccc5oc(N)nc5c4)c4c(N)ncnc43)cc3cccc(C)c23)CC1 [Compound 6]

Biological target: T3, PI3K γ (Homo sapiens, UniProt P48736)
T3 construct: purchased Sigma
Test: In vitro IC50, PI3K γ (p110γ inhibition assay)
Type: biochemical
Conditions: in vitro kinase assay
Protocol: as §1, with “Class I PI3-Ks can be either purchased (p110α/p85α, p110β/p85α, p110δ/p85α from Upstate, and p110γ from Sigma) or expressed as previously described (Knight et al., 2004). IC50” for “IC50”, “quantitated. For each compound, kinase activity is measured at 10-12 inhibitor concentrations representing two-fold dilutions from the highest concentration tested (typically, 200 μM).” for “quantitated.”
as §2

T3 sequence (P48736 whole entry): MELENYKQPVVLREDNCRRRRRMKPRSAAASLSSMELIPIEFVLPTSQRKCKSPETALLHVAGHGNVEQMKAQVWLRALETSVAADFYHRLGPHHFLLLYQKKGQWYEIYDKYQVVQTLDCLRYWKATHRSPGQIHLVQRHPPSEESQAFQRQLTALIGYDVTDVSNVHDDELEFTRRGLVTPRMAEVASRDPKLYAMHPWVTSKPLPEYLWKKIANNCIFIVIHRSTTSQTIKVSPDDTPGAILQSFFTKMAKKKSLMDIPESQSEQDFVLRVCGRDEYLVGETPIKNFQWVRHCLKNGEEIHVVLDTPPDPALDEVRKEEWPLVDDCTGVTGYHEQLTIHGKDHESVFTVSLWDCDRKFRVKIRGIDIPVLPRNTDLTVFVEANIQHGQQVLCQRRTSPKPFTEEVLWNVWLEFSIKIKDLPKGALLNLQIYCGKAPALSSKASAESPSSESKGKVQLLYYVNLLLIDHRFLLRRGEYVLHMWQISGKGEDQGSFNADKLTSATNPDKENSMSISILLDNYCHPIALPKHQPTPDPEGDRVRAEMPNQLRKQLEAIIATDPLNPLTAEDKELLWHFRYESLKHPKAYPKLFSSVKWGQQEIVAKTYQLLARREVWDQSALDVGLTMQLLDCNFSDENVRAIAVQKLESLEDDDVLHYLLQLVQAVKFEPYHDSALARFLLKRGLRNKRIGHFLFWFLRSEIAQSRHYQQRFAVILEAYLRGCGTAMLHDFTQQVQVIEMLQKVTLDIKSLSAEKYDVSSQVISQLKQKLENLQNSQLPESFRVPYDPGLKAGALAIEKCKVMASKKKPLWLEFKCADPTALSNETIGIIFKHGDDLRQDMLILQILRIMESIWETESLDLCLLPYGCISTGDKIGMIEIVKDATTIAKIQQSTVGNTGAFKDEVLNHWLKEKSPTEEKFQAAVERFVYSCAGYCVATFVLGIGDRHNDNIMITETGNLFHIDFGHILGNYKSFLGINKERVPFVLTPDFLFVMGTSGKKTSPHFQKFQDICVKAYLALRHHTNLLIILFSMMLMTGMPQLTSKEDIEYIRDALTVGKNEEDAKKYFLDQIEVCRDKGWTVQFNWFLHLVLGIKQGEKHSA

Compound | IC50 [nM]
CCN1CCC(Oc2nc(Cn3nc(-c4cn[nH]c4)c4c(N)ncnc43)cc3cccc(C)c23)CC1 [Compound 7] | > 10000
Cc1cccc2cc(Cn3nc(-c4cn[nH]c4)c4c(N)ncnc43)nc(OC3CCNCC3)c12 [Compound 9] | > 10000
Cc1cccc2cc(Cn3nc(-c4cn[nH]c4)c4c(N)ncnc43)nc(OC3CCN(C(C)C)CC3)c12 [Compound 13] | < 10000
CCN1CCC(Oc2nc(C(C)Nc3ncnc4[nH]cnc34)cc3cccc(C)c23)CC1 (centres unmarked) [Compound 16] | > 10000
Cc1cccc2cc(Cn3nc(-c4ccc5oc(N)nc5c4)c4c(N)ncnc43)nc(N3CCN(C)CC3)c12 [Compound 17] | < 100
Cc1cccc2cc(Cn3nc(-c4ccc5oc(N)nc5c4)c4c(N)ncnc43)nc(N3CCOCC3)c12 [Compound 36] | < 100
Cc1cccc2cc(Cn3nc(-c4cn[nH]c4)c4c(N)ncnc43)nc(N3CCOCC3)c12 [Compound 37] | < 10000
Cc1cccc2cc(C(C)Nc3ncnc4[nH]cnc34)nc(CCN3CCOCC3)c12 (centres unmarked) [Compound 38] | < 10000
Cc1cccc2cc(C(C)Nc3ncnc4[nH]cnc34)nc(CCN3CCCC3)c12 (centres unmarked) [Compound 39] | > 10000
Cc1cccc2cc(C(C)Nc3ncnc4[nH]cnc34)nc(NCCN3CCOCC3)c12 (centres unmarked) [Compound 42] | > 10000

The remaining lines, values ahead:

IC50 [nM] | Compound
< 100 | Nc1nc2cc(-c3nn(Cc4cc5ccccc5c(N5CCCC5)n4)c4ncnc(N)c34)ccc2o1 [Compound 1]
< 100 | CN(C)c1nc(Cn2nc(-c3ccc4oc(N)nc4c3)c3c(N)ncnc32)cc2ccccc12 [Compound 2]
> 10000 | Cc1cccc2cc(Cn3nc(-c4cn[nH]c4)c4c(N)ncnc43)nc(OC3CCN(C)CC3)c12 [Compound 3]
< 100 | Cc1cccc2cc(Cn3nc(-c4ccc5oc(N)nc5c4)c4c(N)ncnc43)nc(OC3CCN(C(C)C)CC3)c12 [Compound 4]
< 100 | Cc1cccc2cc(Cn3nc(-c4ccc5oc(N)nc5c4)c4c(N)ncnc43)nc(OC3CCN(C)CC3)c12 [Compound 5]
< 100 | CCN1CCC(Oc2nc(Cn3nc(-c4ccc5oc(N)nc5c4)c4c(N)ncnc43)cc3cccc(C)c23)CC1 [Compound 6]
